Series [1] in a line: Storage stability of HOCl solution by container. The series is classed as physicochemical. The conditions noted are these: any form of plastic container. The source says:
The present invention relates to a method of manufacture of pharmaceutical grade hypochlorous acid (HOCl) solution. The solution is free of toxic by-products and is manufactured by means of a process that is novel. Furthermore, the manufacturing process results in high concentration HOCl solution at a pre-determined pH level. The solution is stable when kept in UV-protected glass for two years. Due to the method and process of manufacture, the solution is of a pharmaceutical grade.
HOCl+UV light→OH+Cl^−+O3 [Reaction Formula 11] • It is therefore essential to store solutions containing HOCl in UV-protected inert containers. • ii) The container in which the solutions are kept should be made of glass. […] Glass containers avoid oxidation reactions between the container and HOCl. • iii) Stable HOCl production requires platinum grade reactants, including pure water without any organic and inorganic compounds or ions, as the oxidation of these compounds will deplete the HOCl concentration in the solution. • iv) Correcting the solution pH to between 4.0-5.80 immediately after manufacturing, through real-time buffering. Variation outside pH 4.0 to 5.80 will not only result in the dissociation of HOCl into Cl2 or OCl^− but will provide the environment for the decomposition of HOCl to form chlorate. It is therefore of utmost importance that this pH level

For series [2] the following is noted: cited from earlier work.

This is an account of results in patent US20250129486A1, “A METHOD FOR MANUFACTURING PHARMACEUTICAL GRADE HYPOCHLOROUS ACID” (priority 2022, published 2025).

The term pKa denotes the negative logarithm of the acid dissociation constant.

In the case of `OCl` [HOCl, hypochlorous acid], in series [1], the “Decomposition of HOCl in container” value is reported as “marked decomposition”. Also, the pKa in series [2] is 7.53.
